# Experimental data reported in US8580775B2, “Use of derivatives of sinapinic acid and compositions comprising such derivatives” (Cognis IP Management GmbH, priority 2007, dated 2013).
# Test system: Melanocytes (B16 cell line)
# Test: Melanogenesis Inhibition Assay
# Assay type: cell-based
# Settings: for Protein level (rate of cellular proteins) / Melanin level: B16 melanocytes, 3 days incubation, mean +/− SEM; for Protein level (rate of cellular proteins): Bradford's method; for Melanin level: optical density at 475 nm
# Method: Melanocytes (B16 cell line) were inoculated in standard medium of cell culture with foetal calf serum (FCS). After an incubation of 3 days at 37° C. under 5% CO2, growth medium was exchanged for standard medium with a range of concentrations for each compound to be tested and a control without ingredient. After an incubation of 3 days, the level of melanin was measured by recording the optical density at 475 nm. After washing the cells with a balanced salt buffer, and homogenisation in a solution of 0.1 M NaOH, the number of viable cells was determined by evaluation of the level of cellular proteins (Bradford's method).
# The results are expressed in % against control (cell culture medium without compound) as a mean+/−SEM (Standard Error of Mean) on 2 or 3 assays, each in triplicate.
SMILES,Protein level (rate of cellular proteins) (dose 0.001 % (w/v)),Melanin level (dose 0.001 % (w/v)),Protein level (rate of cellular proteins) (dose 0.003 % (w/v)),Melanin level (dose 0.003 % (w/v)),cell toxicity (summary in words of Table 3),Protein level (rate of cellular proteins) (dose 0.0003 % (w/v)),Melanin level (dose 0.0003 % (w/v)),Protein level (rate of cellular proteins) (dose 0.01 % (w/v)),Melanin level (dose 0.01 % (w/v)),rate of melanin synthesis in melanocytes (summary in words of Table 3)
CCOC(=O)/C(=C/c1cc(OC)c(O)c(OC)c1)C(C)=O [example 2],110 +/− 10 %/control,108 +/− 3 %/control,123 +/− 9 %/control,54 +/− 6 %/control,without cell toxicity,–,–,–,–,–
"COc1cc(/C=C/C(=O)O)cc(OC)c1OC(C)=O [example 1, 3,5-dimethoxy-4-acetoxy-cinnamic acid]",95 +/− 1 %/control,67 +/− 2 %/control,93 +/− 3 %/control,26 +/− 1 %/control,without cell toxicity,100 +/− 1 %/control,86 +/− 2 %/control,81 +/− 10 %/control,19 +/− 2 %/control,decreased
